Entries after “also recorded” stand apart in the source; their conditions may differ.
How the values were obtained:
HDAC1 = HDAC1 (Homo sapiens, UniProt Q13547); experiment: In vitro HDAC1 inhibition assay; assay type: biochemical; conditions: for IC50 HDAC1: mean ± SEM of three independent assays, NA: IC50 not apparent even with the compound tested >10 μM; for SI (selectivity index): ratio of IC50 of HDAC6 divided by that of HDAC1
HDAC3 = HDAC3 (Homo sapiens, UniProt O15379); experiment: In vitro HDAC3 inhibition assay; assay type: biochemical
[1] = test system: normal human liver L-O2 cells; experiment: In vitro toxicity test; assay type: cell-based; conditions: for IC50: Homo sapiens, L02, 72 h, read-out: IC50 L-O2 cells; for SI (selectivity index): ratio of IC50 of L-O2 cells divided by that of HL-60 cells
HL-60 cells [2] = experiment: Cell cycle analysis by flow cytometry; assay type: cell-based, human; conditions: HL-60, 48 h
HL-60 cells [3] = experiment: Western blot analysis in HL-60 cells; assay type: cell-based, human; conditions: 48 h; for histone H3 acetylation (Ac-H3) level: different concentrations; for expression of Rb / expression of p-Rb / expression of γ-H2AX: increasing concentration
[4] = test system: promyelocytic leukaemia HL-60 cells; experiment: MTT cell growth inhibition assay, HL-60; assay type: cell-based; conditions: Homo sapiens, HL-60, 72 h, read-out: IC50 HL-60 cells
HL-60 cells [5] = experiment: Cell apoptosis detection; assay type: cell-based, human; conditions: HL-60, 48 h
HDAC10 = target: T1, HDAC10 (Homo sapiens, UniProt Q969S8); experiment: In vitro HDAC10 inhibition assay; assay type: biochemical
T1 sequence (Q969S8 1-669): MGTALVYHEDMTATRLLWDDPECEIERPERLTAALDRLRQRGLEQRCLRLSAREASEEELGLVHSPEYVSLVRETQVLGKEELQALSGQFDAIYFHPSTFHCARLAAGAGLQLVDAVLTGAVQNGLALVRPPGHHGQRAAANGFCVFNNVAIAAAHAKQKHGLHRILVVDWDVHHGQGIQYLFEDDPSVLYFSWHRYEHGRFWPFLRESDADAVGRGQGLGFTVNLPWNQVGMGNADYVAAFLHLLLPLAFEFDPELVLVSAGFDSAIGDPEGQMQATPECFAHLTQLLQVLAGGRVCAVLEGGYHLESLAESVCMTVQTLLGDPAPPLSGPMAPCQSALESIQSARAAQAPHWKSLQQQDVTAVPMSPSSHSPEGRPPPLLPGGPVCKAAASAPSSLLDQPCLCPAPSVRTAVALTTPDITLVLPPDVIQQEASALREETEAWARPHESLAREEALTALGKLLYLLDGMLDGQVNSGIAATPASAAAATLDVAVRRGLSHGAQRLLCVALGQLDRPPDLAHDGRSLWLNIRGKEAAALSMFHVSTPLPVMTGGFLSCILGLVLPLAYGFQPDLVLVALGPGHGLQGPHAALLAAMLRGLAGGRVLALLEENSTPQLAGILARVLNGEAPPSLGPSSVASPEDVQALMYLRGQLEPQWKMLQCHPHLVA

HDAC6 = target: T2, HDAC6 (Homo sapiens, UniProt Q9UBN7); experiment: In vitro HDAC6 inhibition assay; assay type: biochemical; conditions: mean ± SEM of three independent assays; NA: IC50 not apparent even with the compound tested >10 μM
T2 sequence (Q9UBN7 1-1215): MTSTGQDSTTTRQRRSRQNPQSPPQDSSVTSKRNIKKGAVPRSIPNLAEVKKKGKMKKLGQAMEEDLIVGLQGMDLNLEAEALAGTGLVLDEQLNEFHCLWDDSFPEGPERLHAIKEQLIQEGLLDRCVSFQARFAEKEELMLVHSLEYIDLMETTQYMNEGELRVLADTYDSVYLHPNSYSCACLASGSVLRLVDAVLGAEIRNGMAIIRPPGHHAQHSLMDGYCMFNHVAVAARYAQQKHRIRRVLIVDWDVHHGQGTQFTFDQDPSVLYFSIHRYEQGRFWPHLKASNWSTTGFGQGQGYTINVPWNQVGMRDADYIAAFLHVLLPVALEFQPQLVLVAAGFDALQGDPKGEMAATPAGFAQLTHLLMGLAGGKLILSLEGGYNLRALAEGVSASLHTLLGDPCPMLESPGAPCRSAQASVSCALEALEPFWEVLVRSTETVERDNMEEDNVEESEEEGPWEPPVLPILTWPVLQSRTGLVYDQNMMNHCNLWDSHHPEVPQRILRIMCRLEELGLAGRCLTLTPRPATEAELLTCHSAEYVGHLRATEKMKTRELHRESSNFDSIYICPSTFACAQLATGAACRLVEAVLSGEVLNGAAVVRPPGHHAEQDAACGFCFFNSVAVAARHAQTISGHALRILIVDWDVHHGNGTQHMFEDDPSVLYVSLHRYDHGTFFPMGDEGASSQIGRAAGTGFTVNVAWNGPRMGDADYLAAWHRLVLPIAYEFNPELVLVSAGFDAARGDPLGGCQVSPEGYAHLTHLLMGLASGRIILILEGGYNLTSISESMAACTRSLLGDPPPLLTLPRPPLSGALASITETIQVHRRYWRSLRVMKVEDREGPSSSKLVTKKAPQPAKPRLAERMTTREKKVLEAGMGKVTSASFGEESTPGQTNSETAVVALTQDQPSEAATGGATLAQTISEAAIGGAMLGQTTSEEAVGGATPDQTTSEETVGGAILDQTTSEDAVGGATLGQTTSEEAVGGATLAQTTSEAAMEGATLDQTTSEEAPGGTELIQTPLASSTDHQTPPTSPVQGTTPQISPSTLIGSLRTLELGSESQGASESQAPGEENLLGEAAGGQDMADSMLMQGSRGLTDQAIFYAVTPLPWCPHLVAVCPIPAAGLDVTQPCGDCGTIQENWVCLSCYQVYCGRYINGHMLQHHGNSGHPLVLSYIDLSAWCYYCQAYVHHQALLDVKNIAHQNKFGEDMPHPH

HDAC8 = target: T3, HDAC8 (Homo sapiens, UniProt Q9BY41); experiment: In vitro HDAC8 inhibition assay; assay type: biochemical; conditions: for IC50 HDAC8: mean ± SEM of three independent assays
T3 sequence (Q9BY41 1-377): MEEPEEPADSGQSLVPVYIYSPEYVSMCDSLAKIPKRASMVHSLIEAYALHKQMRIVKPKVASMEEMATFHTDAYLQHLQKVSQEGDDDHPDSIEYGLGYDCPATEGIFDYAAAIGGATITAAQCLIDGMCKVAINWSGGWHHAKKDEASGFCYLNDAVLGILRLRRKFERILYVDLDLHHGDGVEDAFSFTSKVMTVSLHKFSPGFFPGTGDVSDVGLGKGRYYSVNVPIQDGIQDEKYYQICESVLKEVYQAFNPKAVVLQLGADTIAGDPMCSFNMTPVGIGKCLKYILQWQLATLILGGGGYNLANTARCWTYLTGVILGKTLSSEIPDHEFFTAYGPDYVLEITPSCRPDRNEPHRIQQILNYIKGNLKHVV

[6] = test system: colon cancer HCT-116 cells; experiment: MTT cell growth inhibition assay, HCT-116; assay type: cell-based, human; conditions: for IC50: Homo sapiens, HCT-116, 72 h, read-out: IC50 HCT-116 cells

Sequence of HDAC1 (Q13547 whole entry): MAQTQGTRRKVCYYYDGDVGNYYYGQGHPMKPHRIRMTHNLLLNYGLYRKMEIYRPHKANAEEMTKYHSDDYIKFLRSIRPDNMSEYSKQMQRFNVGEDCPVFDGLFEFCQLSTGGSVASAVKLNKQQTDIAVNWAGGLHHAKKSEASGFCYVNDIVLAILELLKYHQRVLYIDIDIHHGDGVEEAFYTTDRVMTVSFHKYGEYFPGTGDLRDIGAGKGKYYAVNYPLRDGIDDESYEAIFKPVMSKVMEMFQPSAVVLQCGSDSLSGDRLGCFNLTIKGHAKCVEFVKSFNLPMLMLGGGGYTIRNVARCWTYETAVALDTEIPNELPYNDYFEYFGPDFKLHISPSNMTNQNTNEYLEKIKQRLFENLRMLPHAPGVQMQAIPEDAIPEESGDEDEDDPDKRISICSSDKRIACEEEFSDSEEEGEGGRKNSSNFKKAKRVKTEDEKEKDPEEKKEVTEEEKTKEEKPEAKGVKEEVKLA
Sequence of HDAC3 (O15379 whole entry): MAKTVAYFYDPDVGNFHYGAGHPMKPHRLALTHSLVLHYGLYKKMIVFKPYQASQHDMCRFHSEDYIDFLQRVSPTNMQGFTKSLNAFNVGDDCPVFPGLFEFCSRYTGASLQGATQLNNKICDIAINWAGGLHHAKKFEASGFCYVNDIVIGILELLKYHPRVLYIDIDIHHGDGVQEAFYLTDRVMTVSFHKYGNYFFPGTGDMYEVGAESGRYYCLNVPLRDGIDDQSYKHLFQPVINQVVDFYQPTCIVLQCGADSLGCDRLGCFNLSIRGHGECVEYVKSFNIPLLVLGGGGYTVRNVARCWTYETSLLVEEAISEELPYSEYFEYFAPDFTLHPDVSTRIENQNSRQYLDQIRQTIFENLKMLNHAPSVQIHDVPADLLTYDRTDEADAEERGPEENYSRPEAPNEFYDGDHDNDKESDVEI
Sequence of HDAC3 (Q9Y618 395-489 partner limits assumed): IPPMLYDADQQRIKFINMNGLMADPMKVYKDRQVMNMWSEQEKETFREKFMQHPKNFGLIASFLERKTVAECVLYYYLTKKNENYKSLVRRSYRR

SMILES: Cc1c(C(=O)Nc2ccccc2N)cc(Br)c2c(=O)c3ccccc3[nH]c12 [Compound 16a, N-(2-aminophenyl)-1-bromo-4-methyl-9-oxo-9,10-dihydroacridine-3-carboxamide]
- IC50 HDAC1 (HDAC1): completely lost

SMILES: COc1cccc2c(=O)c3c(Cl)ccc(C(=O)NCCCCCCC(=O)Nc4ccccc4N)c3[nH]c12 [Compound 11c, N-(7-((2-aminophenyl)amino)-7-oxoheptyl)-1-chloro-5-methoxy-9-oxo-9,10-dihydroacridine-4-carboxamide]
- IC50 (HDAC3): 225 ± 9 nM
- IC50 (HDAC1): 87 ± 3 nM
- SI (selectivity index) (HDAC1): >114.9
- IC50 [1]: 7190 ± 1520 nM
- SI (selectivity index) [1]: 5.8
- proportion of cells in S phase (HL-60 cells [2]; 0.2 μM): 48.4%
- proportion of cells in S phase (HL-60 cells [2]; 1 μM): 52.7%
- proportion of cells in S phase (HL-60 cells [2]; 5 μM): 58.4%
- histone H3 acetylation (Ac-H3) level (HL-60 cells [3]): significantly induced histone H3 acetylation
- expression of Rb (HL-60 cells [3]): significantly down-regulated
- expression of p-Rb (HL-60 cells [3]): significantly down-regulated
- expression of γ-H2AX (HL-60 cells [3]): up-regulated
- IC50 [4]: 1240 ± 80 nM
- proportion of apoptotic cells (HL-60 cells [5]; 5 μM): 70.3%
- IC50 (HDAC10): 177 ± 8 nM
- IC50 HDAC6 (HDAC6): no inhibitory effect; also recorded: no inhibitory activity
- IC50 (HDAC8): > 5000 nM
- IC50 HDAC8 (HDAC8): no inhibitory effect; also recorded: no inhibitory activity
- IC50 [6]: 4210 ± 570 nM

SMILES: COc1cccc2c(=O)c3c(Cl)ccc(C(=O)NCCCCCCC(=O)Nc4ccc(F)cc4N)c3[nH]c12 [Compound 11d, N-(7-((2-amino-4-fluorophenyl)amino)-7-oxoheptyl)-1-chloro-5-methoxy-9-oxo-9,10-dihydroacridine-4-carboxamide]
- IC50 (HDAC1): 247 ± 38 nM
- SI (selectivity index) (HDAC1): >40.5
- IC50 [4]: 10200 ± 3200 nM
- IC50 [6]: 7510 ± 740 nM

SMILES: COc1cccc2c(=O)c3c(Cl)ccc(C(=O)NCCCC(=O)Nc4ccccc4N)c3[nH]c12 [Compound 11a, N-(4-((2-aminophenyl)amino)-4-oxobutyl)-1-chloro-5-methoxy-9-oxo-9,10-dihydroacridine-4-carboxamide]
- IC50 (HDAC1): 4090 ± 273 nM
- SI (selectivity index) (HDAC1): >2.4
- IC50 [4]: 13200 ± 2430 nM
- IC50 HCT-116 cells ([6]; MTT, 72 h, mean ± SEM of three assays, NA: IC50 not apparent even with the compound tested >50 μM): no anti-proliferation activity

SMILES: Nc1cc(F)ccc1NC(=O)c1ccc(CNC(=O)/C=C/c2cccnc2)cc1 [Chidamide, chidamide, reference compound]
- IC50 [1]: 8870 ± 930 nM
- IC50 [4]: 860 ± 70 nM
- IC50 (HDAC10): 259 ± 23 nM
- IC50 [6]: 3860 ± 1080 nM

SMILES: Cc1c(C(=O)Nc2ccc(Br)cc2N)cc(Br)c2c(=O)c3ccccc3[nH]c12 [Compound 16b, N-(2-amino-4-bromophenyl)-1-bromo-4-methyl-9-oxo-9,10-dihydroacridine-3-carboxamide]
- IC50 HDAC1 (HDAC1): completely lost

SMILES: Nc1cc(F)ccc1NC(=O)c1ccc(Cl)c2c(=O)c3cccc([N+](=O)[O-])c3[nH]c12 [Compound 8a, N-(2-amino-4-fluorophenyl)-1-chloro-5-nitro-9-oxo-9,10-dihydroacridine-4-carboxamide]
- IC50 HDAC1 (HDAC1): completely lost

SMILES: COc1cccc2c(=O)c3c(Cl)ccc(C(=O)NCCCCCC(=O)Nc4ccccc4N)c3[nH]c12 [Compound 11b, N-(6-((2-aminophenyl)amino)-6-oxohexyl)-1-chloro-5-methoxy-9-oxo-9,10-dihydroacridine-4-carboxamide]
- IC50 (HDAC3): 418 ± 40 nM
- IC50 (HDAC1): 227 ± 9 nM
- SI (selectivity index) (HDAC1): >44.1
- IC50 [1]: 5000 ± 330 nM
- SI (selectivity index) [1]: 8.9
- proportion of cells in S phase (HL-60 cells [2]; 0.1 μM): 49.1%
- proportion of cells in S phase (HL-60 cells [2]; 0.5 μM): 50.4%
- proportion of cells in S phase (HL-60 cells [2]; 2.5 μM): 59.2%
- histone H3 acetylation (Ac-H3) level (HL-60 cells [3]): significantly induced histone H3 acetylation
- expression of Rb (HL-60 cells [3]): significantly down-regulated
- expression of p-Rb (HL-60 cells [3]): significantly down-regulated
- expression of γ-H2AX (HL-60 cells [3]): up-regulated
- IC50 [4]: 560 ± 30 nM
- proportion of apoptotic cells (HL-60 cells [5]; 2.5 μM): 85.8%
- IC50 (HDAC10): 387 ± 64 nM
- IC50 HDAC6 (HDAC6): no inhibitory effect; also recorded: no inhibitory activity
- IC50 (HDAC8): > 5000 nM
- IC50 HDAC8 (HDAC8): no inhibitory effect; also recorded: no inhibitory activity
- IC50 [6]: 3170 ± 260 nM

— PMC10165928 (Journal of Enzyme Inhibition and Medicinal Chemistry, 2023)
